Data: US20200405793A1, “USE OF […] PATHWAY INHIBITOR AND […] PREPARING ANTI-TUMOR DRUG” (GUANGZHOU VIROTECH PHARMACEUTICAL CO., LTD., priority 2017, published 2020)
“Also recorded” adds a separate entry of the source.

How the values were obtained:
[1] = system: M1 virus structural protein E1 and nonstructural protein NS3; assay: Immunoblot of M1 viral proteins after siRNA interference of mevalonate pathway genes; type: cell-based; conditions: HCT-116; siRNA HMGCR, SQLE, FNTB, PGGT1B, RABGGTB 25, 25, 4, 20, 20 nM; M1 1 MOI; 24 hours
Description: (§1) The cells were inoculated into a 35 mm culture dish, cultured until the confluence degree of the cells reaches 60% and subjected to the following interference treatment: firstly, a Lipofectamine RNAiMAX solution was prepared with Opti-MEM by diluting according to 2 μL: 198 μL per culture dish and uniformly mixing; secondly, an siRNA solution was prepared with Opti-MEM by diluting according to 1.8 μL: 198 μL per culture dish, wherein the final concentration of siRNA interfering HMGCR, SQLE, FNTB, PGGT 1B and RABGGTB (specifically see FIG. 9 and the description of the Figures) were 25, 25, 4, 20 and 20 nM respectively, and mixing gently; finally, the diluted Lipofectamine RNAiMAX and siRNA were mixed, and stood for 15 minutes at room temperature; the mixed solution was added into a culture dish containing 1.5 mL of serum-free culture medium; and the medium was changed to a complete medium after 24 hours, and infected with M1 virus (1MOI). Cell lysates were collected after 24 hours and immunoblotted.

[2] = system: HCT-116, Capan-1 and SW 1990 cells; assay: Cell morphology under inverted phase contrast microscope after siRNA interference of HMGCR and M1 virus infection; type: cell-based, human; conditions: HCT-116, Capan-1, SW 1990; siRNA 25 nM; M1 virus 1 MOI; 48 h after infection
Description: as §1, with “was 25 nM,” for “interfering HMGCR, SQLE, FNTB, PGGT 1B and RABGGTB (specifically see FIG. 9 and the description of the Figures) were 25, 25, 4, 20 and 20 nM respectively,”, “The changes in cell morphology” for “Cell lysates”, “observed” for “collected”, “48 h under the inverted phase contrast microscope.” for “24 hours and immunoblotted.”

alphavirus M1 = assay: Mevalonate pathway inhibiting compounds acting on tumor cells with M1 virus: virus replication; type: cell-based
[3] = system: M1 viral proteins (structural protein E1 and non-structural protein NS3); assay: Immunoblot of M1 viral proteins after statin treatment of M1-infected HCT-116 cells; type: cell-based, M1 virus; conditions: concentration not given
Description: (§2) a) Cell culture: human intestinal cell carcinoma strain HCT-116 was grown in a DMEM complete medium containing 10% FBS, 100 U/ml penicillin and 0.1 mg/ml streptomycin; all cell strains were cultured in a constant temperature closed incubator at 5% CO2, 37° C. (95% RH) and observed by the inverted microscope. Cells were passaged once for approximately 2-3 days and the cells in logarithmic growth phase were used for formal experiments.
Cells were infected with M1 virus (MOI=1), treated with M1 virus (MOI=1) combined with fluvastatin or atorvastatin (1 and 10 μM), and cellular proteins were harvested after 24 hours and immunoblotted.

HCT-116 cells [4] = assay: Cell morphology after fluvastatin and M1 virus treatment; type: cell-based, human; conditions: fluvastatin 2 μM, M1 virus MOI=1, 48 hours
Description: as §2
c) Cells were inoculated into a 24-well plate at 30,000 cells/well; after the cells were treated with fluvastatin 2 (μM), they were infected with M1 virus (MOI=1); and the changes of cell morphology were observed under the inverted phase contrast microscope after 48 hours.

[5] = system: HCT-116 or SW 1990 transplanted tumors; assay: Growth of subcutaneous transplanted tumors in nude mice; type: in vivo, BALB/c nude mice; conditions: Tipifarnib 500 μg/kg/d i.p.; M1 2×10^9 PFU/kg/d tail vein; 6 consecutive injections; vs control group; both tumor models
Description: This experiment used a randomized, single-blind design. 5×10^6 HCT-116 or SW 1990 cells were injected subcutaneously into the dorsal flank of the 4 week old BALB/c nude mouse.
When the tumor size reached 50 mm3, the mice were divided into […], including untreated control group, Tipifarnib alone group (500 μg/kg/d by intraperitoneal injection), M1 infection alone group (2×10^9 PFU/kg/d by tail vein injection of M1 virus) and Tipifarnib/M1 combined group (same dose of Tipifarnib and M1 virus), and treated with 6 consecutive injections. The length, width and weight of the tumor were measured every two days, and the volume of the tumor was measured according to the formula (length×width^2)/2. One way ANOVA was performed after measuring tumor volume, ***indicates p<0.001.

SW1990 cells = assay: MTT cell viability, Tipifarnib and M1 virus; type: cell-based, human; conditions: Tipifarnib 50 nM, M1 virus MOI=1, 48 h
Description: (§3) Each group of experiments was repeated 3 times.

HCT-116 cells [6] = assay: MTT cell viability, Tipifarnib and M1 virus; type: cell-based, human; conditions: Tipifarnib 50 nM, M1 virus MOI=1, 48 h
Description: as §3

| Compound | replication of the alphavirus M1 (alphavirus M1) | expression of M1 virus protein [3] | also measured |
| --- | --- | --- | --- |
| AACCCAAUGCCCAUGUUCCdTdT (as printed in the source, key not given here) [siRNA targeting HMGCR, siRNA interfering the HMG-CoA reductase gene (HMGCR)] |  |  | expression of structural protein E1 and nonstructural protein NS3 of the virus [1]: increased significantly; also recorded: significantly increase the protein expression of M1 virus; changes in cell morphology [2]: did not affect the morphology of tumor cells |
| COC(=O)[C@H](CCSC)NC(=O)c1ccc(NC[C@@H](N)CS)cc1-c1ccccc1.O=C(O)C(F)(F)F [FTI277] | promote replication of the alphavirus Ml |  |  |
| atorvastatin | promote replication of the alphavirus Ml | significantly increase the protein expression of M1 virus; also recorded: promote the expression of M1 virus protein |  |
| CC(C)n1c(/C=C/[C@@H](O)C[C@@H](O)CC(=O)[O-])c(-c2ccc(F)cc2)c2ccccc21.[Na+] [fluvastatin] | promote replication of the alphavirus Ml | significantly increase the protein expression of M1 virus; also recorded: promote the expression of M1 virus protein | changes of cell morphology (HCT-116 cells [4]): induced lesions in a small number of cells |
| Cn1cncc1[C@@](N)(c1ccc(Cl)cc1)c1ccc2c(c1)c(-c1cccc(Cl)c1)cc(=O)n2C [Tipifarnib] | promote replication of the alphavirus Ml |  | tumor volume [5]: only a slight reduction in tumor volume; tumor cell survival rate (SW1990 cells): 90%; tumor cell survival rate (HCT-116 cells [6]): 80% |
